According to patent US20110288052A1, “NOVEL COMPOUNDS, PHARMACEUTICAL COMPOSITIONS CONTAINING SAME, AND METHODS OF USE FOR SAME” (priority 2008, published 2011):
≈ marks a conversion by molar mass, not a printed value.

How the values were obtained:
[1] = system: MCF-7 human breast cancer cells; test: XTT cytotoxicity assay, MCF-7 (M); type: cell-based; details: MCF7, MCF-7, 72 hours
Protocol: XTT Cytotoxicity Assay The XTT assay is a non-radioactive alternative for the [^51Cr] release cytotoxicity assay. XTT is a tetrazolium salt that is reduced to a formazan dye only by metabolically active, viable cells. The reduction of XTT is measured spectrophotometrically as OD490-OD650. To measure the cytotoxicity of specific compounds against cancer cells, 9×10^3 MCF-7 human breast cancer cells (shown in the tables as “(M)”), obtained from the American Type Culture Collection are plated per well in 96 well plates in DMEM medium with 10% fetal bovine serum, insulin, penicillin, and streptomycin. Following overnight culture at 37° C. and 5% CO2, the compounds to be tested, dissolved in DMSO, are added to the wells in 1 μl volume at the following concentrations: 80, 40, 20, 10, 5, 2.5, 1.25, and 0.625 μg/ml in triplicate. Additional concentrations are tested if required. 1 μl of DMSO is added to triplicate wells are the vehicle control. C75 is run at 40, 20, […], and 5 μg/ml in triplicate as positive controls. After 72 hours of incubation, cells are incubated for 4 hours with the XTT reagent as per manufacturer's instructions (Cell Proliferation Kit II (XTT) Roche). Plates are read at OD490 and OD650 on a Molecular Devices SpectraMax Plus Spectrophotometer. Three wells containing the XTT reagent without cells serve as the plate blank. XTT data are reported as OD490-OD650. Averages and standard error of the mean are computed using SOFTmax Pro software (Molecular Dynamics). The IC50 for the compounds is defined as the concentration of drug leading to a 50% reduction in OD490-OD650 compared to controls. The OD490-OD650 are computed by the SOFTmax PRO software (Molecular Devices) for each compound concentration. IC50 is calculated by linear regression, plotting the FAS activity as percent of control versus drug concentrations. Linear regression, best-fit line, r^2, and 95% confidence intervals are determined using Prism Version 3.0 (Graph Pad Software).

[2] = system: OVCAR3 cells; test: XTT cytotoxicity assay, OVCAR3 (OV); type: cell-based; details: Homo sapiens, OVCAR-3
Protocol: (§1) XTT Cytotoxicity Assay The XTT assay is a non-radioactive alternative for the [^51Cr] release cytotoxicity assay. XTT is a tetrazolium salt that is reduced to a formazan dye only by metabolically active, viable cells. The reduction of XTT is measured spectrophotometrically as OD490-OD650. To measure the cytotoxicity of specific compounds against cancer cells, 9×10^3 MCF-7 human breast cancer cells (shown in the tables as “(M)”), obtained from the American Type Culture Collection are plated per well in 96 well plates in DMEM medium with 10% fetal bovine serum, insulin, penicillin, and streptomycin. Following overnight culture at 37° C. and 5% CO2, the compounds to be tested, dissolved in DMSO, are added to the wells in 1 μl volume at the following concentrations: 80, 40, 20, 10, 5, 2.5, 1.25, and 0.625 μg/ml in triplicate. Additional concentrations are tested if required. 1 μl of DMSO is added to triplicate wells are the vehicle control. C75 is run at 40, 20, […], and 5 μg/ml in triplicate as positive controls. After 72 hours of incubation, cells are incubated for 4 hours with the XTT reagent as per manufacturer's instructions (Cell Proliferation Kit II (XTT) Roche). Plates are read at OD490 and OD650 on a Molecular Devices SpectraMax Plus Spectrophotometer. Three wells containing the XTT reagent without cells serve as the plate blank. XTT data are reported as OD490-OD650. Averages and standard error of the mean are computed using SOFTmax Pro software (Molecular Dynamics). The IC50 for the compounds is defined as the concentration of drug leading to a 50% reduction in OD490-OD650 compared to controls. The OD490-OD650 are computed by the SOFTmax PRO software (Molecular Devices) for each compound concentration. IC50 is calculated by linear regression, plotting the FAS activity as percent of control versus drug concentrations. Linear regression, best-fit line, r^2, and 95% confidence intervals are determined using Prism Version 3.0 (Graph Pad Software). The test was also run against OVCAR3 cells (“OV”), and HCT116 cells (“H”).

[3] = system: HCT116 cells; test: XTT cytotoxicity assay, HCT116 (H); type: cell-based; details: Homo sapiens, HCT-116
Protocol: as §1

[4] = system: MCF-7 human breast cancer cells (fatty acid oxidation pathway activity); test: Fatty acid oxidation ([14C]palmitate to acid soluble products); type: cell-based; details: Homo sapiens, MCF7, read-out: FAO Max; for Emax at 0.098 µg/mL: at 0.098 μg/ml
Protocol: Measurement of Fatty Acid Oxidation and Determination of SC150 of Compounds This assay measures the degradation of [^14C]palmitate into acid soluble products and is a measure of fatty acid oxidation pathway activity in vitro. It is utilized to measure fatty acid oxidation in vitro. MCF-7 human breast cancer cells cultured as above, are plated at 2.5×10^5 cells per well in 24-well plates. Following overnight incubation, the compounds to be tested, solubilized in DMSO, are added at […], 0.39, 1.56, 6.25, 25, and 100 μg/ml in triplicate, with lower concentrations tested if necessary. DMSO is added to triplicate wells for a vehicle control. C75 is run at 5 and 10 μg/ml in triplicate as positive controls. After 1 hour of incubation, medium is removed 100 uM of [^14C] palmitate in cyclodextran and 200 uM carnitine in serum free medium (250 μl volume) is added to each well. After 30 minutes of additional incubation, the reaction is stopped by addition of 2.6N HClO4. Contents of each well are transferred to 1.5 ml Eppendorf tubes and 4N KOH is added. The tubes are incubated for 30 minutes at 60° C. 1 M NaAcetate and 3N H2SO4 is added to each tube and vortexed. The tubes are centrifuged at 1000 rpm for 5 minutes at RT. 250 μl of the supernatant is transferred to a 2 ml eppendorf tube. To each tube is added: 938 μl of chloroform:methanol (1:1), 468 μl chloroform and 281 μl of deionized water. The tubes are vortexed and centrifuged at 1000 rpm for 5 minutes at RT. 750 μl of the upper phase is transferred into a scintillation vial 5 ml of scintillant is added and vials are counted for 1 minute for ^14C. The Beckman Scintillation counter calculates the average cpm values for triplicates. The SC150 for the compounds is defined as the concentration of drug leading to a 150% increase in production of acid soluble products of [^14C] palmitate as compared to untreated controls. This is determined by plotting the average cpm for each inhibitor concentration tested, performing linear regression and computing the best-fit line, r^2 values, and 95% confidence intervals. The average cpm values are computed by the Beckman scintillation counter (Model LS6500) for each compound concentration. Computation of linear regression, best-fit line, r^2, and 95% confidence intervals are calculated using Prism Version 3.0 (Graph Pad Software). If a compound fails to achieve this 150% threshold it is considered negative. The maximum value achieved is also reported (FAO Max).

[5] = system: MCF-7 human breast cancer cells (fatty acid synthesis pathway activity); test: [14C]acetate incorporation into total lipids; type: cell-based; details: MCF7, [14C]acetate incorporation into lipids
Protocol: Measurement of [^14C]acetate Incorporation into Total Lipids and Determination of IC50 of Compounds. This assay measures the incorporation of [^14C]acetate into total lipids and is a measure of fatty acid synthesis pathway activity in vitro. It is utilized to measure inhibition of fatty acid synthesis in vitro.
MCF-7 human breast cancer cells cultured as above, are plated at 5×10^4 cells per well in 24-well plates. Following overnight incubation, the compounds to be tested, solubilized in DMSO, are added at 5, 10, and 20 μg/ml in triplicate, with lower concentrations tested if necessary. DMSO is added to triplicate wells for a vehicle control. C75 is run at 5 and 10 μg/ml in triplicate as positive controls. After 4 hours of incubation, 0.25 μCi of [^14C]acetate (10 μl volume) is added to each well.
After 2 hours of additional incubation, medium is aspirated from the wells and 800 μl of chloroform:methanol (2:1) and 700 μl of 4 mM MgCl2 is added to each well. Contents of each well are transferred to 1.5 Eppendorf tubes, and spun at full-speed for 2 minutes in a high-speed Eppendorf Microcentrifuge 5415D. After removal of the aqueous (upper) layer, an additional 700 μl of chloroform:methanol (2:1) and 500 μl of 4 mM MgCl2 are added to each tube and then centrifuged for 1 minutes as above. The aqueous layer is removed with a Pasteur pipette and discarded. An additional 400 μl of chloroform:methanol (2:1) and 200 μl of 4 mM MgCl2 are added to each tube, then centrifuged and aqueous layer is discarded. The lower (organic) phase is transferred into a scintillation vial and dried at 40° C. under N2 gas. Once dried, 3 ml of scintillant (APB #NBC5104) is added and vials are counted for ^14C. The Beckman Scintillation counter calculates the average cpm values for triplicates.
The IC50 for the compounds is defined as the concentration of drug leading to a 50% reduction in [^14C]acetate incorporation into lipids compared to controls. This is determined by plotting the average cpm for each inhibitor concentration tested, performing linear regression and computing the best-fit line, r^2 values, and 95% confidence intervals. The average cpm values are computed by the Beckman scintillation counter (Model LS6500) for each compound concentration. Computation of linear regression, best-fit line, r^2, and 95% confidence intervals are calculated using Prism Version 3.0 (Graph Pad Software).

[6] = Solubility problem noted during the assays; type: physicochemical; details: read-out: Sol Prob (solubility problem at concentration)

| IC50 [5] [mg/L] | solubility [6] [mg/mL] | SMILES | IC50 [1] [mg/L] | IC50 [2] [mg/L] | IC50 [3] [mg/L] | Emax at 1.56 µg/mL ([4]; at 1.56 μg/ml) [%] | Emax at 0.098 µg/mL [4] [%] |
| --- | --- | --- | --- | --- | --- | --- | --- |
| – | – | CCCCCCCCC1(C)SC(=O)C=C1OCC(=O)N1CCN(c2ccc(C(F)(F)F)cc2)CC1 (centres unmarked) | 50.7 (≈ 98.9 µM) | > 80 | > 80 | 118 | – |
| 26.3 (≈ 57.9 µM) | 0.08 (≈ 176 µM) | CCCCCCCCC1(C)SC(=O)C=C1OCC(=O)Nc1ccc(S(N)(=O)=O)cc1 (centres unmarked) | 7 (≈ 15.4 µM) | 13.4 (≈ 29.5 µM) | 8.7 (≈ 19.1 µM) | – | – |
| – | – | CCCCCCCCC1(C)SC(=O)C=C1OCC(=O)N1CCN(c2ccc(Cl)cc2)CC1 (centres unmarked) | 35.7 (≈ 74.5 µM) | 24.4 (≈ 50.9 µM) | 9.7 (≈ 20.2 µM) | – | 79 |
| – | – | CCCCCCCCC1(C)SC(=O)C=C1OCC(=O)N1CCN(c2ccc(OC)cc2)CC1 (centres unmarked) | > 80 | > 80 | > 80 | – | 53 |
